{
  "source": "patent US12612362B2",
  "about": "(SHANXI MEDICAL UNIVERSITY, priority 2021, dated 2026)",
  "key": {"[1]": {"tested_on": "pancreas islets of the rats", "assay": "Insulin secretion of isolated rat pancreas islets (insulin radioimmunoassay)", "settings": "for effect of promoting insulin secretion: 30 min incubation, n=7"}, "C57BL/6 mice": {"tested_on": "C57BL/6 mice", "assay": "Oral glucose tolerance test (OGTT)", "assay_type": "in vivo", "settings": "n=7"}},
  "note": "“Also recorded” adds a separate entry of the source.",
  "data": [
    {"compound": "COc1ccc(C[C@H]2NC[C@H](O)[C@H]2OC(C)=O)cc1", "note": "[anisomycin, (2R,3S,4S)-2-[(4-methoxyphenyl)methyl]-3,4-pyrrolidinediol 3-acetate methyl ester]", "values": [
      {"measurement": "effect of promoting insulin secretion", "setting": "[1]; 2.8 mmol/L glucose (2.8G), 10 μM", "result": "does not have the effect of promoting insulin secretion; also recorded: does not have the effect of promoting secretion of insulin"},
      {"measurement": "effect of promoting insulin secretion", "setting": "[1]; 11.1 mmol/L glucose (11.1G), 1 μM", "result": "has the significant effect of promoting insulin secretion"},
      {"measurement": "effect of promoting insulin secretion", "setting": "[1]; 11.1 mmol/L glucose (11.1G), 10 μM", "result": "has the significant effect of promoting insulin secretion; also recorded: has the significant effect of promoting secretion of insulin"},
      {"measurement": "effect of promoting insulin secretion", "setting": "[1]; 16.7 mmol/L glucose (16.7G), 10 μM", "result": "can still promote secretion of insulin with significant difference"},
      {"measurement": "concentration dependence of promoting insulin secretion", "setting": "[1]; 11.1G, 0.1 μM, 1 μM and 10 μM", "result": "concentration-dependent effect of promoting insulin secretion"},
      {"measurement": "tolerance to glucose load (blood glucose curve and AUC in OGTT)", "setting": "C57BL/6 mice; 5 mg/kg intraperitoneally, vs control group", "result": "improved to different extents"},
      {"measurement": "glucose reducing effect (blood glucose curve and AUC in OGTT)", "setting": "C57BL/6 mice; 15 mg/kg intraperitoneally, vs control group and 5 mg/kg", "result": "more obvious than 5 mg/kg anisomycin in glucose reducing effect"}
    ]}
  ]
}
